Literature values, collected in patent US20260317295A1, “NAV1.8 INHIBITORS, PREPARATION METHOD THEREFOR AND USE THEREOF” (SHANGHAI INSTITUTE OF MATERIA MEDICA, CHINESE ACADEMY OF …, priority 2023, published 2026).

Assays:
[1] = test system: Nav1.8; settings: L7-1.8TG transgenic mice
[2] = test system: Nav1.8; settings: rodents
[3] = test system: Nav1.8; settings: rat, STZ-induced diabetic neuropathy, intraperitoneal or intraplantar

| Structure (SMILES) | MS behaviors [1] | pain responses [2] | pain behavioral responses [3] |
| --- | --- | --- | --- |
| CNC(=O)c1ccc(-c2cc(Cl)cc(Cl)c2Cl)c(N)n1 [PF-01247324] | alleviate the MS behaviors | – | – |
| COc1cc(NC(=O)c2ccc(-c3ccc(Cl)cc3)o2)cc(OC)c1 [Compound A-803467] | – | effectively alleviate pain responses | dose-dependently alleviate the animals' pain behavioral responses |
